Measurements: patent publication US6825354B2 (Wyeth Holdings Corporation, priority 1999, dated 2004)
Like-named read-outs stand apart in the source and are kept apart here. Each block holds one compound with its values, some of them ahead of it.

What was measured:
[1] = molecular target: T1, MMP-1 (Homo sapiens, UniProt P03956); assay: MMP-1 inhibition, thiopeptide or fluorescent peptide substrate; assay type: biochemical; conditions: Table 1, second part; for IC50: read-out: MMP1 IC50; for inhibition at 10 µM: read-out: MMP1 % @ 10 μM
T1 sequence (P03956 100-469): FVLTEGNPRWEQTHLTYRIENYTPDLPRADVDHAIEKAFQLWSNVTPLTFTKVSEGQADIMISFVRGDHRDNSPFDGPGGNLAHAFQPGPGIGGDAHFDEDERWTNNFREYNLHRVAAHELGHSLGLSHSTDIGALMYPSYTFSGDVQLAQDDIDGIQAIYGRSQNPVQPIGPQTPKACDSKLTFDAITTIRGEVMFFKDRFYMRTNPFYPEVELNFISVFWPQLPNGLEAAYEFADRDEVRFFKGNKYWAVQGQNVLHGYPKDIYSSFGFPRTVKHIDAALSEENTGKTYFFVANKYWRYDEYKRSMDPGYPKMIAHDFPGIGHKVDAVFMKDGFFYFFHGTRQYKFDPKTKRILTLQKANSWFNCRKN
Protocol: (§1) The enzyme activity is measured by the rate of the color increase. The thiopeptide substrate is made up fresh as a 20 mM stock in 100% DMSO and the DTNB is dissolved in 100% DMSO as a 100 mM stock and stored in the dark at room temperature. Both the substrate and DTNB are diluted together to 1 mM with substrate buffer (50 mM HEPES pH 7.5, 5 mM CaCl2) before use. The stock of enzyme is diluted with buffer (50 mM HEPES, pH 7.5, 5 mM CaC12, 0.02% Brij) to the desired final concentration.
(§2) Alternatively, a fluorescent peptide substrate is used. In this test procedure, the peptide substrate contains a fluorescent group and a quenching group. Upon cleavage of the substrate by an MMP, the fluorescence that is generated is quantitated on the fluorescence plate reader. The assay is run in HCBC assay buffer (50 mM HEPES, pH 7.0, 5 mM Ca^+2, 0.02% Brij, 0.5% Cysteine), with human recombinant MMP-1, MMP-9, or MMP-13. The substrate is dissolved in methanol and stored frozen in 1 mM aliquots. For the assay, substrate and enzymes are diluted in HCBC buffer to the desired concentrations. Compounds are added to the 96 well plate containing enzyme and the reaction is started by the addition of substrate.
(§3) For either the thiopeptide or fluorescent peptide test procedures, the slope of the line is calculated and represents the reaction rate. […] The mean (x±sem) of the control rate is calculated and compared for statistical significance (p<0.05) with drug-treated rates using Dunnett's multiple comparison test.

[2] = molecular target: MMP-9 (Homo sapiens, UniProt P14780); assay: MMP-9 inhibition, thiopeptide or fluorescent peptide substrate; assay type: biochemical; conditions: for IC50: read-out: MMP9 IC50; for inhibition at 10 µM: read-out: MMP9 % @ 10 μM
Sequence of MMP-9 (P14780 94-707): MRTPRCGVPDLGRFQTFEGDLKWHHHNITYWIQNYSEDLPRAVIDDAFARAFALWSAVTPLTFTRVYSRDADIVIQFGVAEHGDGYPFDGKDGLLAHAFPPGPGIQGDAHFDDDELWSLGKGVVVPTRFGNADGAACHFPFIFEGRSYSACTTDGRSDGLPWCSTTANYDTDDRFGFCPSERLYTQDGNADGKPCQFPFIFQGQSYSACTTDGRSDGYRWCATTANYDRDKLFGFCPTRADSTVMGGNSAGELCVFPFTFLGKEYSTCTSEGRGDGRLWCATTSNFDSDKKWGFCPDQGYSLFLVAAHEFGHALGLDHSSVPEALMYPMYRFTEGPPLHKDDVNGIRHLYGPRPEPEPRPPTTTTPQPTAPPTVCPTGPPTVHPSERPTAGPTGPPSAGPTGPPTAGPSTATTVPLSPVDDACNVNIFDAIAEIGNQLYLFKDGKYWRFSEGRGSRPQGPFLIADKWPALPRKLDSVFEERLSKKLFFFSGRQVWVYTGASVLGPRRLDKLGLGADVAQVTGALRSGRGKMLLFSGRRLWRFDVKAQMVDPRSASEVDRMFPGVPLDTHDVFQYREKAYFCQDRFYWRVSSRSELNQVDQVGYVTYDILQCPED
Protocol: as §1, §2, §3

[3] = system: THP-1 cells (soluble TNF-α); assay: Human monocytic THP-1 cell differentiation assay for soluble proteins (THP soluble protein assay); assay type: cell-based; conditions: negative = less TNF-α; for TNFalpha at 3 uM, THP (percent change): percent change from vehicle positive control; for inhibition at 3 µM: Homo sapiens, THP-1, percent change from vehicle positive control, read-out: TNFalpha at 3 uM, THP (percent change)
Source text: Mitogenic stimulation of THP-1 cells cause differentiation into macrophage like cells with concomitant secretion of tumor necrosis factor (TNF-a) and TNF receptor (TNF-R p75/80 and TNF-R p55/60) and Interleukin-8 (IL-8), among other proteins. […] The release of membrane bound TNF-a and possibly TNF-R p75/80 and TNF-R p55/60, but not IL-8, is mediated by an enzyme called TNF-α converting enzyme or TACE.
THP-1 cells (from ATCC) are a human monocytic cell line which were obtained from the peripheral blood of a person with acute monocytic leukemia They can be grown in culture and differentiated into macrophage like cells by stimulation with mitogens.
Each vial of cells are cultured for about two weeks prior to being used for an assay and then are used for only 4 to 6 weeks to screen compounds.
Cell exposure to DMSO was limited to 0.1% final concentration. […] Compounds can be evaluated for their effect on basal (non-stimulated) shedding of the receptors by replacing the LPS with […] of THP-1 media Plates are placed into an incubator set at 5% CO2 and at 37° C. After 4 hours of incubation, […] of tissue culture supernatant (TCS) is removed for use in an TNF-α ELISA. Following 24 hours of incubation, […] of TCS is removed and used for analysis in TNF-R p75/80, TNF-R p55/60 and IL-8 ELISAs.
In addition, at the 24 hours timepoint, and the cells for each treatment group are collected by resuspension in 500 μl/well of THP-1 media and transferred into a FACS tube. […] The samples are run on a Becton Dickinson FaxCaliber FLOW cytometry machine and the amount of dye taken up by each cell is measured in the high red wavelength (FL3). Only cells with compromised membranes (dead or dying) can take up PI. The percent of live cells is calculated by the number of cells not stained with PI, divided by the total number of cells in the sample. The viability values calculated for the drug treated groups were compared to the viability value calculated for the vehicle treated mitogen stimulated group (“vehicle positive control”) to determine the “percent change from control”. This “percent change from control” value is an indicator of drug toxicity.
The quantity of soluble TNF-α, TNF-R p75/80 and TNF-R p55/60 and IL-8 in the TCS of the ThP-1 cell cultures are obtained with commercially available ELISAs from R&D Systems, by extrapolation from a standard curve generated with kit standards. The number of cells that either take up or exclude PI are measured by the FLOW cytometry machine and visualized by histograms using commercially available Cytologic software for each treatment group including all controls.
Biological variability in the magnitude of the response of THP-1 cell cultures requires that experiments be compared on the basis of percent change from “vehicle positive control” for each drug concentration. Percent change in each soluble protein evaluated from the “vehicle positive control” was calculated for each compound concentration with the following formula: [formula]
For the soluble protein (TNF-a, p75/80, p55/60, IL-8) studies under stimulated conditions, the mean pg/ml of duplicate wells were determined and the results expressed as percent change from “vehicle positive control”. For the soluble protein (p75/80 and p55/60 receptors) studies under non-stimulated conditions, the mean pglml of duplicate wells were determined and the results expressed as percent change from “vehicle positive control” utilizing the following formula: [formula]
IC50 values for each compound are calculated by non-linear regression analysis using customized software utilizing the JUMP statistical package.
For the cell viability studies, the viabilities (PI exclusion) of pooled duplicate wells were determined and the results expressed as % change from “vehicle positive control”.

[4] = molecular target: MMP-13 (Homo sapiens, UniProt P45452); assay: MMP-13 inhibition, thiopeptide or fluorescent peptide substrate; assay type: biochemical; conditions: for inhibition at 10 µM: read-out: MMP13 % @ 10 μM; for IC50: read-out: MMP13 IC50
Protocol: as §1, §2, §3

[5] = molecular target: TNF-α converting enzyme (TACE) (Homo sapiens, UniProt P78536); assay: TACE inhibition, fluorescent peptidyl substrate; assay type: biochemical
Sequence of TNF-α converting enzyme (TACE) (P78536 215-824): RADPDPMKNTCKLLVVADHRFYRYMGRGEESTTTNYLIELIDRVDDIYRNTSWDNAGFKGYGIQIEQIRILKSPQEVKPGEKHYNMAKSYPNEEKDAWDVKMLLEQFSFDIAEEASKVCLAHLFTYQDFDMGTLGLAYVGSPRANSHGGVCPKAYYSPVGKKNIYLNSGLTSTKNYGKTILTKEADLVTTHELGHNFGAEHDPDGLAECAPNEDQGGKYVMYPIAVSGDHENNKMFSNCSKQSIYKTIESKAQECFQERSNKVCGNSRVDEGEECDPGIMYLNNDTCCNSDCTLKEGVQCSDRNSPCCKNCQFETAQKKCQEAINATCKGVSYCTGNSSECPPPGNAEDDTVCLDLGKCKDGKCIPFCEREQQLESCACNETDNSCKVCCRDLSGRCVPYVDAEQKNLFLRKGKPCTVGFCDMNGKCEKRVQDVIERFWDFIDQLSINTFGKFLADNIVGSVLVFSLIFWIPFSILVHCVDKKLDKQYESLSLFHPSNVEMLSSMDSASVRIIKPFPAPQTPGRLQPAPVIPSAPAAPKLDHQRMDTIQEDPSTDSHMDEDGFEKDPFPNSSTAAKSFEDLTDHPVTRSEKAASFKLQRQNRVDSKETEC
Protocol: […] The reaction is initiated by addition of a fluorescent peptidyl substrate (final concentration 100 μM) to each well and then shaking on a shaker for 5 sec.
The reaction is read (excitation 340 nm, emission 420 nm) for 10 min. and the increase in fluorescence over time is plotted as a linear line. The slope of the line is calculated and represents the reaction rate.
The mean (x±sem) of the control rate is calculated and compared for statistical significance (p<0.05) with drug-treated rates using Dunnett's multiple comparison test.

[6] = Table 1, second part, footnote a: IC50 (nM), read-out: TACE IC50

IC50 [1]: 6480 nM | IC50 ([2]; Table 1, second part): 399 nM
Compound: CC#CCOc1ccc([S+]([O-])[C@@H](C(=O)NO)C(C)C)cc1 (stereo partly drawn) [Example 108, R-2-{[4-(2-butynyloxy)phenyl]sulfinyl}-2-isopropyl-N-hydroxyacetamide]
TNFalpha at 3 uM, THP (percent change) [3]: −29%

Compound: CC#CCOc1ccc([S+]([O-])[C@@H](C(=O)NO)c2ccc(Br)cc2)cc1 (single isomer, unassigned) [Example 87]
inhibition at 3 µM [3]: -5%

Compound: CC#CCOc1ccc(SC(C(=O)NO)c2ccc(OCC)cc2)cc1 (stereo not drawn) [Example 100, 2-{[4-(2-butynyloxy)phenyl]sulfanyl}-N-hydroxy-2-(4-ethoxyphenyl)acetamide]
inhibition at 3 µM [3]: 0%

inhibition at 10 µM [1]: 18.4% | inhibition at 10 µM ([4]; Table 1, second part): 53.4% | inhibition at 10 µM ([2]; Table 1, second part): 0% | IC50 [5, 6]: 148 nM
Compound: CC#CCOc1ccc([S+]([O-])C(C(=O)NO)c2ccc(F)cc2)cc1 (stereo not drawn) [Example 96]
inhibition at 3 µM [3]: 12%

IC50 ([4]; Table 1, first part): 500 nM | IC50 ([2]; Table 1, first part): 2500 nM | IC50 ([5]; Table 1, first part, read-out: TACE IC50): 74.8 nM
Compound: CC#CCOc1ccc(S(=O)(=O)C(CCCCCC)C(=O)NO)cc1 (stereo not drawn) [Example 5, 2-(4-But-2-ynyloxy-benzenelsulfonyl)-octanoic Acid Hydroxamide]

IC50 [1]: 2990 nM | IC50 ([2]; Table 1, second part): 893 nM
Compound: CC#CCOc1ccc([S+]([O-])C(C(=O)NO)C(C)C)cc1 (stereo not drawn) [Example 109, S-2-{[4-(2-butynyloxy)phenyl]sulfinyl}-2-isopropyl-N-hydroxyacetamide]
TNFalpha at 3 uM, THP (percent change) [3]: −20%

MMP1 % @ 10 μM [1]: 7% | MMP13 % @ 10 μM ([4]; Table 1, second part): 17% | TACE % @ 10 μM ([5]; Table 1, second part, footnote a: % @ 10 μM): 15.63%
Compound: CC#CCOc1ccc([S+]([O-])C(C(=O)NO)c2cccc3ccccc23)cc1 (stereo not drawn) [Example 93, 2-{[4-(2-Butynyloxy)phenyl]sulfinyl}-N-hydroxy-2-(1-napthyl)acetamide]
TNFalpha at 3 uM, THP (percent change) [3]: 1%

MMP1 % @ 10 μM [1]: 26% | MMP13 % @ 10 μM ([4]; Table 1, second part): 71% | IC50 [5, 6]: 82 nM
Compound: 2-{[4-(2-butynyloxy)phenyl]sulfonyl}-2-(4-chlorophenyl)-N-hydroxyacetamide [Example 102]
TNFalpha at 3 uM, THP (percent change) [3]: −10%

Compound: CC#CCOc1ccc([S+]([O-])[C@@H](C(=O)NO)c2ccc(OC)cc2)cc1 (single isomer, unassigned) [Example 77]
inhibition at 10 µM [1]: 17.5% | IC50 ([4]; Table 1, second part): 3690 nM | inhibition at 10 µM ([2]; Table 1, second part): 45.4% | IC50 [5]: 201 nM | inhibition at 3 µM [3]: 12%

Compound: CC#CCOc1ccc([S+]([O-])C(C(=O)NO)c2ccc(OCC)cc2)cc1 (stereo not drawn) [Example 101, 2-{[4-(2-Butynyloxy)phenyl]sulfinyl}-N-hydroxy-2-(4-ethoxyphenyl)acetamide]
inhibition at 3 µM [3]: -1%

Compound: CC#CCOc1ccc(SC(C(=O)NO)c2cccc(Br)c2)cc1 (stereo not drawn) [Example 103, 2-{[4-(2-Butynyloxy)phenyl]sulfanyl}-N-hydroxy-2-(3-bromophenyl)acetamide]
inhibition at 3 µM [3]: -15%

inhibition at 10 µM [1]: 6.2% | inhibition at 10 µM ([4]; Table 1, second part): 59% | inhibition at 10 µM ([2]; Table 1, second part): 25.7% | IC50 [5, 6]: 162 nM
Compound: CC#CCOc1ccc([S+]([O-])C(C(=O)NO)c2ccccc2)cc1 (single isomer, unassigned) [Example 113, S-2-{[4-(2-butynyloxy)phenyl]sulfinyl}-2-phenyl-N-hydroxyacetamide]
inhibition at 3 µM [3]: 4%
